What all share (assay type): cell-based
Test [1] deals with HIV-1LAI wildtype. As to the kind of experiment: alamarBlue Viability Assay with HIV-1LAI-infected MT4 cells. As to conditions: Human immunodeficiency virus 1, 10% FBS. How it is done:
For starting a 96-well MTP, 3 million PBLs are pelleted, suspended in 1 ml RPMI 1640 medium/10% FBS/2 mM L-glutamine/1% Pen/Strep and incubated for 2 hours at 37° C. with a suitable quantity of the relevant HIV-1LAI (NIH AIDS Research & Reference Reagent Program, Germantown, USA) (pellet infection). Non-adsorbed viruses are then washed out, and the infected cells pelleted again and suspended in 18 ml RPMI 1640 medium/10% FBS/2 mM L-glutamine/1% Pen/Strep/Interleukin-2 (40 U/ml). From this, 180 μl per well is pipetted into a 96-well MTP to 20 μl of test substance at a suitable level of dilution. Alternatively, the HIV is added after preparation of the substance dilutes in the MTP together with the cells, and is not washed out (supernatant infection). In order to avoid edge effects, the edge wells of the MTP are not used for substance dilutions. The second vertical row of the MTP contains only infected cells (virus control) and the eleventh vertical row only non-infected cells (cell control), each in RPMI 1640 medium/10% FBS/2 mM L-glutamine/1% Pen/Strep/Interleukin-2 (40 U/ml). The remaining wells of the MTP contain the compounds in accordance with the invention in various concentrations, starting from the third vertical row, from which the test substances are diluted in 3-step sequences up to the tenth vertical row by a factor of 3^7. The test substances are dissolved in DMSO; the final DMSO concentration in the test preparation is 1%. The test samples are incubated for 5 days at 37° C./5% CO2. After 5 to 7 days, 50 μl of cell-free supernatant is removed from each well to determine its p24 content using p24 ELISA (HIV-1 p24CA Antigen Capture Assay Kit, NCI-Frederick Cancer Research and Development Center, Frederick, USA). From the resulting values of the photometric analysis (450/620 nm), the EC50 values of the test substances are determined from the resulting dose-response curves using the Prism4 software (GraphPad, San Diego, Calif.) as the concentration of treated infected cells, where the p24 quantity is 50% of the untreated infected cells.
Alternatively, MT4 cells are used in place of PBLs for testing the test substances. HIV-1LAI-infected MT4 cells (MOI 0.01, supernatant infection) are incubated in accordance with the procedure described above in RPMI 1640 medium using 2% or 10% FKS/2 mM L-glutamine/1% Pen/Strep in the presence of the test substances for 5 days at 37° C./5% CO2 (10 μl diluted substance and 90 μl cells/virus per well). 10 μl alamarBlue (Invitrogen, Karlsruhe, Germany) is then added per well and the MTPs are incubated for 3 hours at 37° C. before fluorimetric evaluation is performed (544/590 nm). Using quattroWorkflow software (Quattroresearch, Martinsried, Germany), the EC50 values of the test substances are determined from the resulting dose-response curves as the concentration of treated infected cells in which the fluorescence is 50% of that of the untreated, non-infected cells.
(Resazurin is reduced to fluorescent resorufin, in cell work by metabolically active cells.)

In test [2] the test system is HIV-1NL4-3 K103N-Y181C. Kind of test: Luminescence Reduction Assay, luciferase reporter virus with resistance mutations in MT4 cells. Particulars: Human immunodeficiency virus 1, MT4, read-out: EC50 (μM) MT4 cells HIV-1NL4-3 K103N-Y181C 2% FBS. The source says:
(§1) For this assay, HIV-1NL4-3 reporter viruses are used which carry the luciferase164 gene (lu164) in place of the nef gene. The viruses are generated by transfection of 293T cells with the corresponding proviral pNL4-3 plasmid (Lipofectamine Reagent, Invitrogen, Karlsruhe, Germany). Starting from the proviral plasmid DNA, viruses with defined resistance mutations (single or combined) are produced in the reverse transcriptase gene using the “QuikChange II XL Site-Directed Mutagenesis Kit” (Stratagene, Cedar Creek, Tex., USA). Resistance mutations include, among others: L74V, A98G, A98S, L100I, K101E, K103N, V106A, V106I, V106M, V108I, V108A, E138K, V179I, V179D, V179E, Y181C, Y181I, Y188L, G190A, G1905, H221Y, P225H, F227C, F227L, F227V, M230I, M230L, L234I, P236L, N348I, T369A, T369I, T369V. MT4 cells infected with these reporter viruses (NIH AIDS Research and Reference Reagent Program) secrete luciferase into the medium, which enables the luminometric quantification of the virus replication.
(§2) For starting a 96-well MTP, 3 million MT4 cells are pelleted, suspended in 1 ml RPMI 1640 medium without phenol red (Invitrogen, Karlsruhe, Germany)/10% FBS/2 mM L-glutamine/1% Pen/Strep (Invitrogen, Karlsruhe, Germany), and incubated for 2 hours at 37° C. with a suitable quantity of the relevant HIV-1NL4-3 reporter virus (pellet infection). Non-adsorbed viruses are then washed out, and the infected cells are pelleted again and suspended in 8 ml RPMI 1640 medium without phenol red/2% or 10% FBS/2 mM L-glutamine/1% Pen/Strep. From this, 90 μl per well is pipetted into a white 96-well MTP to 10 μl of test substance at a suitable level of dilution. In order to avoid edge effects, the edge wells of the MTP are not used for substance dilutions. The second vertical row of the MTP contains only infected cells (virus control) and the eleventh vertical row only non-infected cells (cell control), each in RPMI 1640 medium without phenol red/2% or 10% FBS/2 mM L-glutamine/1% Pen/Strep. The remaining wells of the MTP contain the compounds in accordance with the invention in various concentrations, starting from the third vertical row, from which the test substances are diluted in 3-step sequences up to the tenth vertical row by a factor of 3^7. The test substances are dissolved in DMSO; the final DMSO concentration in the test formulation is 1%.
(In general: A reporter such as luciferase makes a cellular process visible.)

Test [3] deals with HIV-1NL4-3 wildtype. Kind of test: Luminescence Reduction Assay, luciferase reporter virus in MT4 cells. As to conditions: Human immunodeficiency virus 1, MT4, read-out: EC50 (μM) MT4 cells HIV-1NL4-3 wildtype 2% FBS.
Source text: as §1, §2

One may read the EC50 as the concentration that produces a half-maximal response. On to `COc1cccc(-n2nc(-c3nccc4c3CNC4=O)cc2-c2ccnc(Cl)c2)c1` [Example 39], for which the EC50 was found to be 0.0486 µM in test [1], 0.0692 µM in test [2] and 0.0075 µM in test [3].

For the compound `COc1cccc(-n2nc(-c3cccc4c3CNC4=O)cc2-c2ccnc(Cl)c2)c1` [Example 40], the EC50 in test [1] was determined as 0.222 µM; in test [2], 0.499 µM; in test [3] it was 0.0517 µM.

`O=C1NCc2c1cccc2-c1cc(-c2cc(F)cc(Cl)c2)n(-c2cccc(Cl)c2)n1` [Example 41]: the results for the EC50 in test [1], in test [2] and in test [3] were 0.0807 µM, 0.152 µM and 0.0112 µM, respectively.

Take `O=C1NCc2c1ccnc2-c1cc(-c2cccc(OC(F)F)c2)n(-c2ccc(F)c(Cl)c2)n1` [Example 42]: the EC50 in test [1] was 0.0717 µM; in test [2], 0.0194 µM; in test [3] it was 0.0098 µM.

In the case of `O=C1NCc2c1ccnc2-c1cc(-c2ccc(F)c(OC(F)(F)F)c2)n(-c2cccc(Cl)c2)n1` [Example 43], the EC50 in test [1] turned out to be 0.674 µM; in test [2], 0.2 µM; in test [3], 0.0568 µM.

For `O=C1NCc2c1cccc2-c1cc(-c2ccc(F)c(OC(F)(F)F)c2)n(-c2cccc(Cl)c2)n1` [Example 44], the EC50 in test [1] was 1.91 µM; in test [2], 0.458 µM; in test [3], 0.533 µM.

Consider `O=C1NCc2c1ncnc2-c1cc(-c2cc(Cl)cc(OC(F)(F)F)c2)n(-c2cccnc2)n1` [Example 45], for which the results for the EC50 in test [1], in test [2] and in test [3] were 0.0045 µM, 0.0007 µM and 0.0005 µM, respectively.

`Cc1nc2c(c(-c3cc(-c4cc(Cl)cc(OC(F)(F)F)c4)n(-c4cccnc4)n3)n1)CNC2=O` [Example 46]: the EC50 came out at 0.0023 µM in test [1], 0.0004 µM in test [2] and 0.0004 µM in test [3].

The record behind these values is patent US9249148B2, “Tris(hetero)arylpyrazoles and use thereof” (AICURIS GMBH & CO. KG, priority 2012, dated 2016).
